Experimental data: patent US6281349A, “Method for nucleic acid purification using iodine” (priority 2000, dated 2001)

What was measured:
Type in all cases: biochemical
[1] = target: T1, Ribonuclease A (RNAase A, pancreatic ribonuclease) (Bos taurus, UniProt P61823); assay: Residual RNAase activity test of plasmids purified with or without iodine (wheat germ rRNA degradation); conditions: 50 mM iodine during potassium acetate precipitation, RNAase A 10 micrograms/mL in cell resuspension buffer, 37° C., 30 min
T1 sequence (P61823 27-150): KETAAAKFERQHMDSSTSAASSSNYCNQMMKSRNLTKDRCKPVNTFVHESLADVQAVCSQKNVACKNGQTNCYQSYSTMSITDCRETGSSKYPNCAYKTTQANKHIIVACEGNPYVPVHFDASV
Protocol: Plasmids were purified by two methods both using RNAase A at 10 micrograms/mL in the cell resuspension buffer. In the right hand sample 50 mM iodine was included during potassium acetate precipitation of unwanted cellular components. In the center lane iodine was not included in the potassium acetate buffer. These purified plasmid preparations, "plasmid+I2 " and "plasmid-I2 ", respectively were incubated with wheat germ RNA in a sensitive assay designed to test for the presence residual RNAase activity. Wheat germ rRNA (0.5 micrograms in 5 microlitres of resuspension buffer: Soln A) was incubated at 37° C. for 30 min either alone or with 2 microlitres of purified plasmid dissolved in Soln A. The resulting samples were electrophoresed in the presence of SYBR green II to detect the nucleic acids. The 28s and 18s components of wheat germ rRNA were not degraded when incubated with buffer alone (left channel) or with plasmids purified by the method employing RNAase A and iodine (right channel). The rRNA was degraded when incubated with plasmids purified with RNAase and without iodine (center channel).

[2] = target: T2, DNaseI (Promega) (Bos taurus, UniProt P00639); assay: Residual nuclease activity test after iodine miniprep (Mg/Ca incubation, supercoiled to nicked plasmid); conditions: 5 Units DNaseI added to cells, 5 mM MgCl2, CaCl2, 90 minutes at 37° C.
T2 construct: purchased Promega
Protocol: (§1) Cells from 1 mL of terrific broth culture of pUC18 in NM522 (EndoI+) were resuspended in 0.2 mL of resuspension buffer (A). #1: No exogenous nuclease, #2:5 micrograms Micrococcal nuclease (MN) (300 units Boehringer Mannheim), #3:5 Units DNaseI (Promega), were added to the respective cell samples before processing for the preparation of the plasmid. After processing by the preferred embodiment Iodine miniprep procedure an aliquot of each sample was made 5 mM each in MgCl2, CaCl2 and 20 mM Tris.HCl pH 8.3. After 90 minutes at 37° C. these were electrophoresed (bottom group) together with aliquots that had not been exposed to Mg/Ca (top group) in a 1% agarose gel with SYBR green II fluorescent dye for detection of nucleic acids.

[3] = target: T3, Endonuclease I (Endo I), endogenous, E. coli NM522 (EndoI+) (Escherichia coli, UniProt P25736); assay: as above; conditions: preferred embodiment, 5 mM MgCl2, CaCl2, 90 minutes at 37° C., no exogenous nuclease
T3 construct: due to either the endogenous Endo I or to residual activity of either of the added nucleases; endogenous in cells; host or cells: E. coli NM522 (EndoI+)
Protocol: as §1

[4] = target: T4, Micrococcal nuclease (MN) (Boehringer Mannheim) (Staphylococcus aureus, UniProt P00644); assay: as above; conditions: 5 micrograms MN (300 units) added to cells, 5 mM MgCl2, CaCl2, 90 minutes at 37° C.
T4 construct: purchased Boehringer Mannheim
Protocol: as §1

T3 sequence (P25736 23-235): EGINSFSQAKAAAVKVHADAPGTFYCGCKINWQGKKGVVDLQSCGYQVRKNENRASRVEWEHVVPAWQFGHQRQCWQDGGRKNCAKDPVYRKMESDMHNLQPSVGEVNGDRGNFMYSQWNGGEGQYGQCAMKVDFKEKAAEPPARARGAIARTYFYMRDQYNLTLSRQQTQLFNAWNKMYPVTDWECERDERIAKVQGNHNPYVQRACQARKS
T2 sequence (P00639 23-282): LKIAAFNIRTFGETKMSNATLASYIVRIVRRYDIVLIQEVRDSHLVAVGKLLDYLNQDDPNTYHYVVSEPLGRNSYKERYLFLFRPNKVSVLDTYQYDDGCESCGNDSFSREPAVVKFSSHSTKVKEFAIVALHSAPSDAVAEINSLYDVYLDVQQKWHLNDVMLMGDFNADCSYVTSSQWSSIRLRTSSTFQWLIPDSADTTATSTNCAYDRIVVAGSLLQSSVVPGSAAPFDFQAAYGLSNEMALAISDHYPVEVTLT

II [iodine]
inactivation of RNase by iodine [1]: effective in inactivating RNAase
inactivation of DNaseI by iodine [2]: lack of conversion of supercoiled plasmid (I) to nicked (II)
inactivation of Endo I by iodine [3]: lack of conversion of supercoiled plasmid (I) to nicked (II)
inactivation of Micrococcal nuclease by iodine [4]: lack of conversion of supercoiled plasmid (I) to nicked (II)
